Test results as given in patent US20040053852A1, “Preventing desensitization of receptors” (priority 2001, published 2004).

Legend:
[1] = Patient with cystic fibrosis, shortness of breath (Example VI); format: in vivo, human; conditions: inhaled GSNO 3 cc of a 10 mM solution, pH 7, 4×/day
Protocol: A person with cystic fibrosis enters the hospital complaining of shortness of breath. […] They are started on inhaled GSNO (3 cc of a 10 mM solution, pH 7, 4×/day).

heart muscle = assay: Ratio of heart weight to body weight after 1 week continuous infusion; format: in vivo; conditions: mice, FIG. 1
Protocol: Mice were treated with 10/ng/kg/day of GSNO, or with PBS (control) or with isoproterenol (at a dosage of 30 mg/kg/day) or with 10 mg/kg/day of GSNO plus 30 mg/kg/day isoproterenol, infused continuously for 1 week. The animals were sacrificed and the hearts were weighed and a ratio of heart weight to body weight was determined for each case. The results are set forth in FIG. 1 where hw:bw, i.e., the legend on the vertical axis, is the ratio of heart weight to total body weight and “ISO” means isoproterenol. […] The increase in size of heart (hypertrophy) is an advantage especially in the case of a patient on a left ventricular heart assist device awaiting heart transplant and in the case of a patient who has had heart surgery and cannot be disconnected from a heart pump without loss of heart function. The asterisks in FIG. 1 mean […] compared to control.

GRK = GRK phosphorylation of a synthetic peptide substrate with 32P-ATP (isolated system); format: biochemical; conditions: 500 μM, 50 μM, 5 μm, FIG. 3
Protocol: An isolated system was provided consisting of medium, GRK, standard synthetic peptide substrate and radiolabeled ^32P-adenosine triphosphate, i.e., ^32P-ATP, as a source of phosphate. Runs were carried out on the system without additives, and with 500 μM glutathione (GSH) present and with GSNO (500 μM) present or with GSNO (50 μM) present or with GSNO (5 μm) present. The amount of bound ^32P was measured in counts per minute (CPM).

[2] = Patient with metastatic prostate cancer, bone pain unresponsive to opiates (Example IV); format: in vivo, human; conditions: intravenous GSNO 10 nmol per kg per minute in conjunction with morphine
Description: A person with metastatic prostate cancer is suffering from severe bone pain unresponsive to opiates.

β-adrenergic receptor = assay: Saturation binding with radiolabeled I125-cyanopindolol in purified cardiac membrane of treated mice; format: in vivo; conditions: GSNO 10 ng/kg/day plus isoproterenol 30 mg/kg/day for 7 days
Protocol: Mice were treated with 10 ng/kg/day of GSNO or PBS infused continuously for 1 week through an azlet miniosmotic pump placed subcutaneously. Another set of mice was treated for 7 days with isoproterenol (30 mg/kg/day), and the fourth and final group received for 7 days, isoproterenol (30 mg/kg/day) plus GSNO (10 ng/kg/day). The mice were sacrificed and heart tissue was removed.

[3] = Patient with class 4 congestive heart failure (Example I); format: in vivo, human
Protocol: A person with class 4 congestive heart failure enters the hospital with shortness of breath and bradyacardia. […] The patient is subsequently switched to IV dobutamine at 10 μg per kg per minute titrated to cardiac output. Over the following three days the drug is increased to 30 μg per kg per minute to maintain cardiac output. […] The patient undergoes bypass surgery and does well even though they have been viewed as at high risk.

[4] = Heroine addict, dose tapering, withdrawal symptoms (Example V); format: in vivo, human; conditions: ethyl nitrite intravenously 2 nmol per kg per minute
Description: A heroine addict enters a clinic where their dose is tapered gradually. In order to avoid symptoms of withdrawal, ethyl nitrite is started intravenously at 2 nmol per kg per minute and symptoms of withdrawal, including sweats and shaking, are ameliorated.

With N[C@@H](CCC(=O)N[C@@H](CSN=O)C(=O)NCC(=O)O)C(=O)O [GSNO, S-nitrosoglutathione] as the molecule, how does the “FEV1, acute change” value [1] read?
The value was “does not change acutely”.

What about the “FEV1 over the following 48 hours” value [1] of the same molecule?
The value was “corresponding improvement in FEV1”.

And the “symptoms of shortness of breath” value ([1]; following 48 hours)?
The value was “resolve over the following 48 hours”.

And the “size of heart muscle (hw:bw, ratio of heart weight to total body weight)” value (heart muscle; 10 mg/kg/day of GSNO plus 30 mg/kg/day isoproterenol infused continuously 1 week)?
Its value is “even more effect in increasing size of heart muscle”.

What about the “size of heart muscle (hw:bw, ratio of heart weight to total body weight)” value (heart muscle; GSNO 10/ng/kg/day infused continuously 1 week) of the same molecule?
The value was “increases the size of the heart muscle”.

What about the “incorporation of 32P into synthetic peptide substrate (bound 32P, CPM)” value (GRK) of the same molecule?
Its value is “concentration dependent reduction in incorporation of ^32P”.

And the bone pain [2]?
The bone pain was “now relieves their pain”.

And the “amount of β-adrenergic receptor” value (β-adrenergic receptor)?
The value was 90 fmol per mg protein.

And the cardiac output ([3]; IV GSNO 2 nmol per kg per minute, on dobutamine 30 μg per kg per minute)?
The cardiac output was “cardiac output improved over the following 24 hours”.

With N[C@@H](CSN=O)C(=O)O [S-nitroso-cysteine] as the molecule, how does the “incorporation of 32P into synthetic peptide substrate (bound 32P, CPM)” value (GRK) read?
Its value is “same result of GRK inhibition and interference with substrate phosphorylation”.

Which symptoms of withdrawal [4] does the source give for CCON=O [ethyl nitrite] here?
The symptoms of withdrawal was “ameliorated”.

Which “size of heart muscle (hw:bw, ratio of heart weight to total body weight)” value (heart muscle; isoproterenol 30 mg/kg/day infused continuously 1 week) does the source give for CC(C)NCC(O)c1ccc(O)c(O)c1 (stereo not shown) [isoproterenol, reference compound] here?
Its value is “increased the size of the heart muscle”.

What about the “symptoms (shortness of breath, bradyacardia)” value ([3]; intravenous isoproterenol 10 μg per minute) of the same molecule?
Its value is “resolution of symptoms”.
